Measured values reported in patent US9695155B2, “Herbicidal substituted pyrimidinyloxy benzene compounds” (E. I. DU PONT DE NEMOURS AND COMPANY, priority 2013, dated 2017).

Columns and labels:
oilseed rape [1] = assay: Test C postemergence; type: in vivo, Brassica napus; details: Brassica napus, post-emergence
Outline: (§1)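 Sown in loam/sand → sprayed pre-emergence; or grown to 1–4 leaves in peat mix → sprayed post-emergence. Same solvent/surfactant formulation both ways. Greenhouse 13–15 d. Score 0–100 visual.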

barnyardgrass [2] = assay: Test A postemergence; type: in vivo, Echinochloa crus-galli; details: 0 to 100 scale where 0 is no effect and 100 is complete control
Outline: (§2)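 Scoring: eye-based comparison with untreated controls, 0 for no effect through 100 for complete control, at about day 10. Treatments: directed soil spray preemergence; foliar spray postemergence on 2–10 cm plants at the one- to two-leaf stage. Medium: loam soil with sand.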

barnyardgrass [3] = assay: Test C preemergence; type: in vivo, Echinochloa crus-galli; details: Echinochloa crus-galli, pre-emergence
Outline: as §1

blackgrass [4] = assay: Test C postemergence; type: in vivo, Alopecurus myosuroides; details: Alopecurus myosuroides, post-emergence
Outline: as §1

oilseed rape [5] = assay: Test C preemergence; type: in vivo, Brassica napus; details: Brassica napus, pre-emergence
Outline: as §1

soybean = assay: Test C preemergence; type: in vivo, Glycine max; details: Glycine max, pre-emergence
Outline: as §1

blackgrass [6] = assay: Test C preemergence; type: in vivo, Alopecurus myosuroides; details: Alopecurus myosuroides, pre-emergence
Outline: as §1

large (Lg) crabgrass = assay: Test C postemergence; type: in vivo, Digitaria sanguinalis; details: Digitaria sanguinalis, post-emergence
Outline: as §1

johnsongrass = assay: Test C preemergence; type: in vivo, Sorghum halepense; details: Sorghum halepense, pre-emergence
Outline: as §1

Italian ryegrass [7] = assay: Test C preemergence; type: in vivo, Lolium multiflorum; details: Lolium multiflorum, pre-emergence
Outline: as §1

giant foxtail = assay: Test A postemergence; type: in vivo, Setaria faberii; details: 0 to 100 scale where 0 is no effect and 100 is complete control
Outline: as §2

wheat = assay: Test A postemergence; type: in vivo, Triticum aestivum; details: 0 to 100 scale where 0 is no effect and 100 is complete control
Outline: as §2

yellow nutsedge = assay: Test C preemergence; type: in vivo, Cyperus esculentus; details: Cyperus, pre-emergence
Outline: as §1

kochia = assay: Test A postemergence; type: in vivo, Kochia scoparia; details: 0 to 100 scale where 0 is no effect and 100 is complete control
Outline: as §2

Italian ryegrass [8] = assay: Test A postemergence; type: in vivo, Lolium multiflorum; details: 0 to 100 scale where 0 is no effect and 100 is complete control
Outline: as §2

morningglory = assay: Test C preemergence; type: in vivo, Ipomoea coccinea; details: Ipomoea, pre-emergence
Outline: as §1

ragweed [9] = assay: Test C preemergence; type: in vivo, Ambrosia elatior; details: Ambrosia artemisiifolia, pre-emergence
Outline: as §1

ragweed [10] = assay: Test A postemergence; type: in vivo, Ambrosia elatior; details: 0 to 100 scale where 0 is no effect and 100 is complete control
Outline: as §2

N#Cc1cccc(Oc2ncc(Cl)cn2)c1-n1cc(SC(F)(F)F)cn1 [Compound 134, 3-[(5-chloro-2-pyrimidinyl)oxy]-2-[4-(trifluoromethylthio)-1-pyrazolyl]benzonitrile]
plant injury at 16 g/ha (oilseed rape [1]; 16 g ai/ha, postemergence, 0 is no effect, 100 is complete control, read-out: Plant response rating (0 to 100), Oilseed Rape): 5%
plant injury at 125 g/ha (oilseed rape [1]; 125 g ai/ha, postemergence, visual rating, scale 0 to 100 (0 no effect, 100 complete control), read-out: Plant response rating, Oilseed Rape): 60%
plant injury at 62 g/ha (oilseed rape [1]; Postemergence, 62 g ai/ha, scale 0 to 100 (0 no effect, 100 complete control), read-out: Plant response rating, Oilseed Rape): 70%
Barnyardgrass plant response rating (barnyardgrass [2]; 125 g ai/ha): 80
Plant response rating, Barnyardgrass (barnyardgrass [2]; 500 g ai/ha): 90
pest or weed control at 16 g/ha (barnyardgrass [3]; 16 g ai/ha, preemergence, scale 0 to 100 (0 no effect, 100 complete control), read-out: Barnyardgrass plant response rating): 0%
pest or weed control at 62 g/ha (barnyardgrass [3]; 62 g ai/ha, preemergence, scale 0 (no effect) to 100 (complete control), read-out: Barnyardgrass plant response rating): 60%
pest or weed control at 125 g/ha (barnyardgrass [3]; 125 g ai/ha, preemergence, scale 0 (no effect) to 100 (complete control), read-out: Barnyardgrass plant response rating): 85%
pest or weed control at 31 g/ha (barnyardgrass [3]; Preemergence, 31 g ai/ha, scale 0 to 100, 0 no effect, 100 complete control, read-out: Plant response rating, Barnyardgrass): 15%
pest or weed control at 16 g/ha (blackgrass [4]; 16 g ai/ha, postemergence, 0 is no effect, 100 is complete control, read-out: Plant response rating (0 to 100), Blackgrass): 5%
pest or weed control at 125 g/ha (blackgrass [4]; 125 g ai/ha, postemergence, visual rating, scale 0 to 100 (0 no effect, 100 complete control), read-out: Plant response rating, Blackgrass): 10%
pest or weed control at 31 g/ha (blackgrass [4]; Postemergence, 31 g ai/ha, scale 0 to 100 (0 no effect, 100 complete control), 13 to 15 days, read-out: Plant response rating, Blackgrass): 25%
pest or weed control at 62 g/ha (blackgrass [4]; Postemergence, 62 g ai/ha, scale 0 to 100 (0 no effect, 100 complete control), read-out: Plant response rating, Blackgrass): 5%
plant injury at 16 g/ha (oilseed rape [5]; 16 g ai/ha, preemergence, scale 0 to 100 (0 no effect, 100 complete control), read-out: Oilseed Rape plant response rating): 20%
plant injury at 62 g/ha (oilseed rape [5]; 62 g ai/ha, preemergence, scale 0 (no effect) to 100 (complete control), read-out: Oilseed Rape plant response rating): 100%
plant injury at 125 g/ha (oilseed rape [5]; 125 g ai/ha, preemergence, scale 0 (no effect) to 100 (complete control), read-out: Oilseed Rape plant response rating): 100%
plant injury at 31 g/ha (oilseed rape [5]; Preemergence, 31 g ai/ha, scale 0 to 100, 0 no effect, 100 complete control, read-out: Plant response rating, Oilseed Rape): 45%
plant injury at 16 g/ha (soybean; 16 g ai/ha, preemergence, scale 0 to 100 (0 no effect, 100 complete control), read-out: Soybean plant response rating): 0%
plant injury at 62 g/ha (soybean; 62 g ai/ha, preemergence, scale 0 (no effect) to 100 (complete control), read-out: Soybean plant response rating): 20%
plant injury at 125 g/ha (soybean; 125 g ai/ha, preemergence, scale 0 (no effect) to 100 (complete control), read-out: Soybean plant response rating): 55%
plant injury at 31 g/ha (soybean; Preemergence, 31 g ai/ha, scale 0 to 100, 0 no effect, 100 complete control, read-out: Plant response rating, Soybean): 15%
pest or weed control at 16 g/ha (blackgrass [6]; 16 g ai/ha, preemergence, scale 0 to 100 (0 no effect, 100 complete control), read-out: Blackgrass plant response rating): 0%
pest or weed control at 62 g/ha (blackgrass [6]; 62 g ai/ha, preemergence, scale 0 (no effect) to 100 (complete control), read-out: Blackgrass plant response rating): 85%
pest or weed control at 125 g/ha (blackgrass [6]; 125 g ai/ha, preemergence, scale 0 (no effect) to 100 (complete control), read-out: Blackgrass plant response rating): 98%
pest or weed control at 31 g/ha (blackgrass [6]; Preemergence, 31 g ai/ha, scale 0 to 100, 0 no effect, 100 complete control, read-out: Plant response rating, Blackgrass): 45%
pest or weed control at 16 g/ha (large (Lg) crabgrass; 16 g ai/ha, postemergence, 0 is no effect, 100 is complete control, read-out: Plant response rating (0 to 100), Crabgrass, Large): 5%
pest or weed control at 125 g/ha (large (Lg) crabgrass; 125 g ai/ha, postemergence, visual rating, scale 0 to 100 (0 no effect, 100 complete control), read-out: Plant response rating, Crabgrass, Large): 15%
pest or weed control at 62 g/ha (large (Lg) crabgrass; Postemergence, 62 g ai/ha, scale 0 to 100 (0 no effect, 100 complete control), read-out: Plant response rating, Crabgrass, Large): 10%
pest or weed control at 16 g/ha (johnsongrass; 16 g ai/ha, preemergence, scale 0 to 100 (0 no effect, 100 complete control), read-out: Johnsongrass plant response rating): 20%
pest or weed control at 62 g/ha (johnsongrass; 62 g ai/ha, preemergence, scale 0 (no effect) to 100 (complete control), read-out: Johnsongrass plant response rating): 45%
pest or weed control at 125 g/ha (johnsongrass; 125 g ai/ha, preemergence, scale 0 (no effect) to 100 (complete control), read-out: Johnsongrass plant response rating): 85%
pest or weed control at 31 g/ha (johnsongrass; Preemergence, 31 g ai/ha, scale 0 to 100, 0 no effect, 100 complete control, read-out: Plant response rating, Johnsongrass): 25%
pest or weed control at 16 g/ha (Italian ryegrass [7]; 16 g ai/ha, preemergence, scale 0 to 100 (0 no effect, 100 complete control), read-out: Ryegrass, Italian plant response rating): 0%
pest or weed control at 62 g/ha (Italian ryegrass [7]; 62 g ai/ha, preemergence, scale 0 (no effect) to 100 (complete control), read-out: Ryegrass, Italian plant response rating): 15%
pest or weed control at 125 g/ha (Italian ryegrass [7]; 125 g ai/ha, preemergence, scale 0 (no effect) to 100 (complete control), read-out: Ryegrass, Italian plant response rating): 70%
pest or weed control at 31 g/ha (Italian ryegrass [7]; Preemergence, 31 g ai/ha, scale 0 to 100, 0 no effect, 100 complete control, read-out: Plant response rating, Ryegrass, Italian): 5%
Foxtail, Giant plant response rating (giant foxtail; 125 g ai/ha): 70
Plant response rating, Foxtail, Giant (giant foxtail; 500 g ai/ha): 100
Plant response rating, Wheat (wheat; 500 g ai/ha): 70
plant injury at 125 g/ha (wheat; Triticum aestivum, post-emergence, 240 h, 125 g ai/ha, read-out: Wheat plant response rating): 0%
pest or weed control at 16 g/ha (yellow nutsedge; 16 g ai/ha, preemergence, scale 0 to 100 (0 no effect, 100 complete control), read-out: Nutsedge, Yellow plant response rating): 0%
pest or weed control at 62 g/ha (yellow nutsedge; 62 g ai/ha, preemergence, scale 0 (no effect) to 100 (complete control), read-out: Nutsedge, Yellow plant response rating): 0%
pest or weed control at 125 g/ha (yellow nutsedge; 125 g ai/ha, preemergence, scale 0 (no effect) to 100 (complete control), read-out: Nutsedge, Yellow plant response rating): 10%
pest or weed control at 31 g/ha (yellow nutsedge; Preemergence, 31 g ai/ha, scale 0 to 100, 0 no effect, 100 complete control, read-out: Plant response rating, Nutsedge, Yellow): 0%
Kochia plant response rating (kochia; 125 g ai/ha): 90
Plant response rating, Kochia (kochia; 500 g ai/ha): 100
Ryegrass, Italian plant response rating (Italian ryegrass [8]; 125 g ai/ha): 50
Plant response rating, Ryegrass, Italian (Italian ryegrass [8]; 500 g ai/ha): 100
pest or weed control at 16 g/ha (morningglory; 16 g ai/ha, preemergence, scale 0 to 100 (0 no effect, 100 complete control), read-out: Morningglory plant response rating): 5%
pest or weed control at 62 g/ha (morningglory; 62 g ai/ha, preemergence, scale 0 (no effect) to 100 (complete control), read-out: Morningglory plant response rating): 35%
pest or weed control at 125 g/ha (morningglory; 125 g ai/ha, preemergence, scale 0 (no effect) to 100 (complete control), read-out: Morningglory plant response rating): 40%
pest or weed control at 31 g/ha (morningglory; Preemergence, 31 g ai/ha, scale 0 to 100, 0 no effect, 100 complete control, read-out: Plant response rating, Morningglory): 20%
pest or weed control at 16 g/ha (ragweed [9]; 16 g ai/ha, preemergence, scale 0 to 100 (0 no effect, 100 complete control), read-out: Ragweed plant response rating): 0%
pest or weed control at 62 g/ha (ragweed [9]; 62 g ai/ha, preemergence, scale 0 (no effect) to 100 (complete control), read-out: Ragweed plant response rating): 55%
pest or weed control at 125 g/ha (ragweed [9]; 125 g ai/ha, preemergence, scale 0 (no effect) to 100 (complete control), read-out: Ragweed plant response rating): 50%
pest or weed control at 31 g/ha (ragweed [9]; Preemergence, 31 g ai/ha, scale 0 to 100, 0 no effect, 100 complete control, read-out: Plant response rating, Ragweed): 25%
Ragweed plant response rating (ragweed [10]; 125 g ai/ha): 50
Plant response rating, Ragweed (ragweed [10]; 500 g ai/ha): 60
